Experimental data taken from patent US12214036B2, “Combination therapy comprising AXL/MER and PD-1/PD-L1 inhibitors” (Incyte Corporation, priority 2020, dated 2025).

Tested on: CTG-1861 tumors
Test: PDX model CTG-1861 (gastrointestinal stromal tumor)
Assay type: in vivo
Details: athymic nude mice
Description: MBT-2 cells were obtained from the Japanese Collection of Research Bioresources Cell Bank and were maintained in DMEM supplemented with 10% FBS. MC38 cells were obtained from the NCI. 4T1 cells were obtained from ATCC and maintained in RPMI media supplemented with 10% FBS. For MBT-2 experiments, 5×10^5 MBT-2 cells were inoculated subcutaneously into the right hind flank of 6- to 8-week-old C3H mice or athymic nude mice (Charles River Laboratories, Wilmington, Mass.). For MC38 studies, 12-week old female C57BL/6 mice were inoculated with brei of MC38 tumors (in-vivo passage 6) into the right hind flank. For 4T1 studies, 7.5×10^5 4 T1 cells were inoculated subcutaneously into the right hind flank of 6- to 8-week-old female BALB/c mice or athymic nude mice (Charles River Laboratories). […] Mice were monitored for tumor growth and overt tolerability over the course of the experiment. […] Tumor volume was calculated using the formula (L×W^2)/2, where L and W refer to the length and width dimensions, respectively. Tumor growth inhibition (TGI) was calculated using the formula (1−(VT/VC))×100, where VT is the tumor volume of the treatment group on the last day of treatment, and VC is the tumor volume of the control group on the last day of treatment. […]
The activity of Compound 1 in sarcoma PDX models was evaluated as described in Example H for PDX models. […] Three mice per group were analyzed. […]

In the case of `CC(C)C(=O)N1CCC(c2cc(-c3ccc(NC(=O)c4cn(C(C)C)c(=O)n(-c5ccccn5)c4=O)cc3)c3c(N)ncnn23)CC1` [Compound 1, N-(4-(4-Amino-7-(1-isobutyrylpiperidin-4-yl)pyrrolo[1,2-f][1,2,4]triazin-5-yl)phenyl)-1-isopropyl-2,4-dioxo-3-(pyridin-2-yl)-1,2,3,4-tetrahydropyrimidine-5-carboxamide], the “TGI (%)” value is reported as 74%.
